Reference: US10189887B2, “Polypeptides and uses thereof for reducing CD95-mediated cell motility” (INSERM (INSTITUT NATIONAL DE LA SANTÉ ET DE LA RECHERCHE …, priority 2014, dated 2019)

Key:
[1] = test system: CD95-mediated Ca^2+ response; assay: Calcium response to cl-CD95L in CEM cells; type: cell-based; conditions: CEM pre-incubated 1 hr, 10 μM peptide, 100 ng/ml cl-CD95L
Method: Cells were loaded with Fura2-AM (1 μM) at resting temperature for 30 min in Hank's Balanced Salt Solution (HBSS). After washing with HBSS, the cells were incubated for 15 min in the absence of Fura2-AM to complete de-esterification of the dye. Cells were placed in a thermostated chamber (37° C.) of an inverted epifluorescence microscope (Olympus IX70) equipped with a ×40, UApo/340-1.15 W water-immersion objective (Olympus), and fluorescence micrograph images were captured at 510 nm and at 12-bit resolution by a fast-scan camera (CoolSNAP fx Monochrome, Photometrics). To minimize UV light exposure, 4×4 binning function was used. […]
T cells were loaded with Fura-PE3-AM (1 μM) at room temperature for 30 min in Hank's Balanced Salt Solution (HBSS). […] Cells were placed in the temperature controlled chamber (37° C.) of an inverted epifluorescence microscope (Olympus IX70) equipped with an ×40 UApo/340-1.15 W water-immersion objective (Olympus), and fluorescence micrograph images were captured at 510 nm and 12-bit resolution by a fast-scan camera (CoolSNAP fx Monochrome, Photometrics). […] The Fura-PE3 ratio (Fratio 340/380) images were analyzed offline with Universal Imaging software, including Metafluor and Metamorph. […] Each experiment was repeated 3 times, and the average of more than 20 single-cell traces was analyzed.

[2] = test system: Th17 cell accumulation; assay: In vivo administration of cl-CD95L: cell accumulation in peritoneal cavity and spleen; set-up: species or system C57BL/6 mice; conditions: 24 hours later
Method: Female C57BL/6 mice (Harlan UK) aged between 8-10 weeks were placed in groups of 6 and administered IP. Twenty-four hours following injection, mice were sacrificed and periteonial cavities were washed with 5 ml of PBS/2% FCS, blood smears were prepared, and spleens were collected. Blood smears and cytospins of periteonal cells (PECs) were stained with Giemsa and differential counts performed. Single cell suspensions of spleens and PECs were prepared, cell counts performed, CD4+CD62− T-cells were isolated with Miltenyi microbeads and number of cells determined by trypan blue exclusion. For experiments where animals received TAT-mCID or control peptides, 800 μg (40 mg/kg) was injected IP 2 hrs prior to administration of cl-CD95L. All mouse experiments were performed under ethical approval from the University of Nottingham local animal ethics committee and adhering to UK Home Office guidelines under the Project License 40/3412.
Single cell suspensions of spleens and PECs were prepared as described above. RNA was extracted from CD4 T-cells using phenol/chloroform. cDNA was prepared using the Promega GO-Script Reverse Transcription Kit and used in Real-Time PCR. Briefly, cDNA samples were subject to Taqman assay performed on a Roche Lightcycler. Results are reported as expression levels were calculated using the Δct method relative to HPRT.

[3] = test system: CD95-mediated Ca^2+ response; assay: Calcium response to cl-CD95L in MDA MB 231 cells; type: cell-based; conditions: MDA MB 231 pre-incubated 1 hr, 10 μM peptide; 100 ng/ml cl-CD95L
Method: Cells were loaded with Fura2-AM (1 μM) at resting temperature for 30 min in Hank's Balanced Salt Solution (HBSS). After washing with HBSS, the cells were incubated for 15 min in the absence of Fura2-AM to complete de-esterification of the dye. Cells were placed in a thermostated chamber (37° C.) of an inverted epifluorescence microscope (Olympus IX70) equipped with a ×40, UApo/340-1.15 W water-immersion objective (Olympus), and fluorescence micrograph images were captured at 510 nm and at 12-bit resolution by a fast-scan camera (CoolSNAP fx Monochrome, Photometrics). To minimize UV light exposure, 4×4 binning function was used. Fura2-AM was alternately excited at 340 and 380 nm, and ratios of the resulting images (excitations at 340 and 380 nm and emission filter at 520 nm) were produced at constant intervals (5 s or 10 s according to the stimulus). […] Fluorescent images were pseudocolored using the IMD display mode in MetaFluor and assembled without further manipulation in Photoshop (Adobe). Raw data were acquired with MetaFluor and graphed in Origin (OriginLab). […]

With “TAT-CID: cell penetrating peptide linking the 36-amino acid-stretch of CID (CD95 residues 175 to 210) to the HIV-TAT sequence; SEQ ID NO: 6 (RKKRRQRRRKRKEVQKTCRKHRKENQGSHESPTLNPETVAINLSD; TAT-CID)” the “calcium response to cl-CD95L” value [1] was “abolished the induction of the CD95-mediated Ca^2+ signal”, the “calcium response to cl-CD95L” value ([1]; listed as TAT CID 175-210) was “completely abolished the calcium response” and the “total cell counts from the PEC (accumulation of T lymphocytes)” value ([2]; 40 mg/kg two hours prior to IP cl-CD95L (200 ng)) was “abolished the CD95-mediated accumulation of T lymphocytes”. The “IL17 production in the peritoneal cavity” value ([2]; 40 mg/kg two hours prior to IP cl-CD95L (200 ng), ELISA) was “prevented”, the “levels of IFN-γ versus control peptide” value ([2]; 40 mg/kg two hours prior to IP cl-CD95L) was “no differences were noted” and the “calcium response to cl-CD95L” value [3] was “completely abolished the calcium response”.
